Experiment: Inhibition concentration against C6 […] cells by the 3-(4,5-dimethylthiazol-2-yl)-2,5-diphenyltetrazoliumbromide (MTT) method
Type: functional, cell-based

## CISPLATIN
  IC50: 5.27 µM
